Results taken from patent US9587266B2, “Mutant luciferases” (University of Massachusetts, priority 2011, dated 2017).
“And” between values parts separate entries of the source, which are not always exact repeats. Equal values may be shown once. Read-outs that look alike come from different tables or passages of the source.

Columns and labels:
Type in all cases: biochemical
[1] = molecular target: T1, R218K mutant luciferase (Photinus pyralis, UniProt P08659, R218K)
T1 construct: The full firefly (Photinus pyralis) luciferase gene was PCR amplified from pGL3 (Promega); GST (N, cleaved yes); made in house; host or cells: E. coli JM109
Protocol: (§1) The PCR product was cloned into the BamH1 and NotI sites of pGEX6P-1 for bacterial expression. Mutant proteins were created using the Quickchange site-directed mutagenesis kit (Stratagene). Saturating mutagenesis was performed using the used the degenerate codon NNK at sites predicted to impact or alter substrate biding including F247, T251, L286, S347, R337, R218, Q338, Y340, A313, and I351 using the degenerate codon NNK.
(§2) Luminescence assays in 96-well plates were initiated by adding 30 μL 2× substrate in 20 mM Tris pH 7.6, 0.1 mM EDTA, 8 mM MgSO4, 4 mM ATP, and 1 mM TCEP to 30 μL of 20 nM purified luciferase in 20 mM Tris pH 7.6, 0.1 mM EDTA, 1 mM TCEP and 0.4 mg/mL BSA.

[2] = molecular target: T2, S347A mutant luciferase (Photinus pyralis, UniProt P08659, S347A); conditions: purified protein
T2 construct: The full firefly (Photinus pyralis) luciferase gene was PCR amplified from pGL3 (Promega); GST (N, cleaved yes); made in house; host or cells: E. coli JM109
Protocol: as §1, §2

[3] = molecular target: T3, L286M + S347A luciferase (Photinus pyralis, UniProt P08659, L286M/S347A); experiment: Bioluminescence emission scan
T3 construct: The full firefly (Photinus pyralis) luciferase gene was PCR amplified from pGL3 (Promega); GST (N, cleaved yes); made in house; host or cells: E. coli JM109
Protocol: (§3) Purified mutant luciferases were used in bioluminescence emission and burst kinetics scans.
(§4) Luciferase was rapidly injected into a cuvette containing substrate, and the emission from 400-800 nm was recorded in a SPEX FluoroMax-3 fluorimeter with closed excitation slits.

[4] = molecular target: T4, F247L L286M luciferase (Photinus pyralis, UniProt P08659, F247L/L286M); experiment: Bioluminescence emission scan
T4 construct: The full firefly (Photinus pyralis) luciferase gene was PCR amplified from pGL3 (Promega); GST (N, cleaved yes); made in house; host or cells: E. coli JM109
Protocol: as §3, §4

[5] = molecular target: T5, T251S L286M luciferase (Photinus pyralis, UniProt P08659, L286M/T251S); experiment: Bioluminescence emission scan
T5 construct: The full firefly (Photinus pyralis) luciferase gene was PCR amplified from pGL3 (Promega); GST (N, cleaved yes); made in house; host or cells: E. coli JM109
Protocol: as §3, §4

[6] = molecular target: T6, S347T luciferase (Photinus pyralis, UniProt P08659, S347T); experiment: Bioluminescence emission scan
T6 construct: The full firefly (Photinus pyralis) luciferase gene was PCR amplified from pGL3 (Promega); GST (N, cleaved yes); made in house; host or cells: E. coli JM109
Protocol: as §3, §4

[7] = molecular target: T7, R218K luciferase (Photinus pyralis, UniProt P08659, R218K); experiment: Bioluminescence emission scan
T7 construct: The full firefly (Photinus pyralis) luciferase gene was PCR amplified from pGL3 (Promega); GST (N, cleaved yes); made in house; host or cells: E. coli JM109
Protocol: as §3, §4

[8] = molecular target: T8, F247S luciferase (Photinus pyralis, UniProt P08659, F247S); experiment: Bioluminescence emission scan
T8 construct: The full firefly (Photinus pyralis) luciferase gene was PCR amplified from pGL3 (Promega); GST (N, cleaved yes); made in house; host or cells: E. coli JM109
Protocol: as §3, §4

[9] = molecular target: T9, T251N luciferase (Photinus pyralis, UniProt P08659, T251N); experiment: Bioluminescence emission scan
T9 construct: The full firefly (Photinus pyralis) luciferase gene was PCR amplified from pGL3 (Promega); GST (N, cleaved yes); made in house; host or cells: E. coli JM109
Protocol: as §3, §4

[10] = molecular target: T10, L342A luciferase (Photinus pyralis, UniProt P08659, L342A); experiment: Bioluminescence emission scan
T10 construct: The full firefly (Photinus pyralis) luciferase gene was PCR amplified from pGL3 (Promega); GST (N, cleaved yes); made in house; host or cells: E. coli JM109
Protocol: as §3, §4

[11] = molecular target: T11, F247V luciferase (Photinus pyralis, UniProt P08659, F247V); experiment: Bioluminescence emission scan
T11 construct: The full firefly (Photinus pyralis) luciferase gene was PCR amplified from pGL3 (Promega); GST (N, cleaved yes); made in house; host or cells: E. coli JM109
Protocol: as §3, §4

[12] = molecular target: T12, T251S luciferase (Photinus pyralis, UniProt P08659, T251S); experiment: Bioluminescence emission scan
T12 construct: The full firefly (Photinus pyralis) luciferase gene was PCR amplified from pGL3 (Promega); GST (N, cleaved yes); made in house; host or cells: E. coli JM109
Protocol: as §3, §4

[13] = molecular target: T13, F247A luciferase (Photinus pyralis, UniProt P08659, F247A); experiment: Bioluminescence emission scan
T13 construct: The full firefly (Photinus pyralis) luciferase gene was PCR amplified from pGL3 (Promega); GST (N, cleaved yes); made in house; host or cells: E. coli JM109
Protocol: as §3, §4

[14] = molecular target: T14, I351A luciferase (Photinus pyralis, UniProt P08659, I351A); experiment: Bioluminescence emission scan
T14 construct: The full firefly (Photinus pyralis) luciferase gene was PCR amplified from pGL3 (Promega); GST (N, cleaved yes); made in house; host or cells: E. coli JM109
Protocol: as §3, §4

[15] = molecular target: T15, L286M luciferase (Photinus pyralis, UniProt P08659, L286M); experiment: Bioluminescence emission scan
T15 construct: The full firefly (Photinus pyralis) luciferase gene was PCR amplified from pGL3 (Promega); GST (N, cleaved yes); made in house; host or cells: E. coli JM109
Protocol: as §3, §4

[16] = molecular target: T16, L286Y luciferase (Photinus pyralis, UniProt P08659, L286Y); experiment: Bioluminescence emission scan
T16 construct: The full firefly (Photinus pyralis) luciferase gene was PCR amplified from pGL3 (Promega); GST (N, cleaved yes); made in house; host or cells: E. coli JM109
Protocol: as §3, §4

[17] = molecular target: T17, S347A/L286M double mutant luciferase (Photinus pyralis, UniProt P08659, L286M/S347A); experiment: Titration assay with purified protein; conditions: sustained light emission
T17 construct: The full firefly (Photinus pyralis) luciferase gene was PCR amplified from pGL3 (Promega); GST (N, cleaved yes); made in house; host or cells: E. coli JM109
Protocol: as §1, with “NNK. The point mutants S347A, L286A, A348G, E311A, I351A, A313G, R337A, H245A and L342A were made independently.” for “NNK.”
as §2, with “BSA. Titration assays were performed 3 minutes post-substrate addition in a Turner Veritas luminometer with final substrate concentrations ranging from 0.122-250 μM or 0.244-500 μM.” for “BSA.”

[18] = molecular target: T18, WT luciferase (Photinus pyralis, UniProt P08659); experiment: Titration assay with purified protein
T18 construct: The full firefly (Photinus pyralis) luciferase gene was PCR amplified from pGL3 (Promega); GST (N, cleaved yes); made in house; host or cells: E. coli JM109
Protocol: as §1, with “NNK. The point mutants S347A, L286A, A348G, E311A, I351A, A313G, R337A, H245A and L342A were made independently.” for “NNK.”
as §2, with “BSA. Titration assays were performed 3 minutes post-substrate addition in a Turner Veritas luminometer with final substrate concentrations ranging from 0.122-250 μM or 0.244-500 μM.” for “BSA.”

[19] = molecular target: T19, T251S mutant luciferase (Photinus pyralis, UniProt P08659, T251S); experiment: Titration assay with purified protein
T19 construct: The full firefly (Photinus pyralis) luciferase gene was PCR amplified from pGL3 (Promega); GST (N, cleaved yes); made in house; host or cells: E. coli JM109
Protocol: as §1, §2

[20] = molecular target: T20, L286M mutant luciferase (Photinus pyralis, UniProt P08659, L286M); experiment: Titration assay with purified protein
T20 construct: The full firefly (Photinus pyralis) luciferase gene was PCR amplified from pGL3 (Promega); GST (N, cleaved yes); made in house; host or cells: E. coli JM109
Protocol: as §1, §2

[21] = molecular target: T21, R218K + L342A luciferase (Photinus pyralis, UniProt P08659, L342A/R218K)
T21 construct: The full firefly (Photinus pyralis) luciferase gene was PCR amplified from pGL3 (Promega); GST (N, cleaved yes); made in house; host or cells: E. coli JM109
Protocol: (§5) Purified mutant luciferases were used in bioluminescence emission and burst kinetics scans. Each purified protein in 20 mM Tris pH 7.6, 0.1 mM EDTA, 1 mM TCEP and 0.4 mg/mL BSA was added to 2× substrate in 20 mM Tris pH 7.6, 0.1 mM EDTA, 8 mM MgSO4, 4 mM ATP, and 1 mM TCEP in a cuvette.
as §4

[22] = molecular target: T18, WT luciferase
Protocol: as §5, §4

[23] = 3 minutes post-substrate addition, read-out: Apparent Km

T18 sequence (P08659 whole entry): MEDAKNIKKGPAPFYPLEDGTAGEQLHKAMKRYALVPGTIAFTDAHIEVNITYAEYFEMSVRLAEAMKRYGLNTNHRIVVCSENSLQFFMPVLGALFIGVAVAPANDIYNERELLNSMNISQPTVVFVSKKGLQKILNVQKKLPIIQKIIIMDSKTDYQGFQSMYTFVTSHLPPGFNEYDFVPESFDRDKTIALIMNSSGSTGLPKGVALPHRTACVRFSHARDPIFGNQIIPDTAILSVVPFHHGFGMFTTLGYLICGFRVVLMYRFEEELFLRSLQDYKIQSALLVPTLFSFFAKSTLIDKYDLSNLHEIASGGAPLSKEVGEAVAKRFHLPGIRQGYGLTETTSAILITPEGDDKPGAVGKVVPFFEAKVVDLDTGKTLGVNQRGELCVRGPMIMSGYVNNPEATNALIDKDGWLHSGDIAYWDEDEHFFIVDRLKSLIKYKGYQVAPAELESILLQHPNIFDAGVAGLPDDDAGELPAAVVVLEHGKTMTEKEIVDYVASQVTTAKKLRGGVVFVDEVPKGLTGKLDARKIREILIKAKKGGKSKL
T1 sequence (P08659 whole entry R218K): as the sequence (P08659 whole entry) above, with R218K counted along it
T7 sequence (P08659 whole entry R218K): as the sequence (P08659 whole entry) above, with R218K counted along it
T19 sequence (P08659 whole entry T251S): as the sequence (P08659 whole entry) above, with T251S counted along it
T20 sequence (P08659 whole entry L286M): as the sequence (P08659 whole entry) above, with L286M counted along it
T2 sequence (P08659 whole entry S347A): as the sequence (P08659 whole entry) above, with S347A counted along it
T6 sequence (P08659 whole entry S347T): as the sequence (P08659 whole entry) above, with S347T counted along it
T9 sequence (P08659 whole entry T251N): as the sequence (P08659 whole entry) above, with T251N counted along it
T5 sequence (P08659 whole entry T251S/L286M): as the sequence (P08659 whole entry) above, with T251S, L286M counted along it
T12 sequence (P08659 whole entry T251S): as the sequence (P08659 whole entry) above, with T251S counted along it
T15 sequence (P08659 whole entry L286M): as the sequence (P08659 whole entry) above, with L286M counted along it
T8 sequence (P08659 whole entry F247S): as the sequence (P08659 whole entry) above, with F247S counted along it
T4 sequence (P08659 whole entry F247L/L286M): as the sequence (P08659 whole entry) above, with F247L, L286M counted along it
T16 sequence (P08659 whole entry L286Y): as the sequence (P08659 whole entry) above, with L286Y counted along it
T11 sequence (P08659 whole entry F247V): as the sequence (P08659 whole entry) above, with F247V counted along it
T17 sequence (P08659 whole entry L286M/S347A): as the sequence (P08659 whole entry) above, with L286M, S347A counted along it
T3 sequence (P08659 whole entry L286M/S347A): as the sequence (P08659 whole entry) above, with L286M, S347A counted along it
T13 sequence (P08659 whole entry F247A): as the sequence (P08659 whole entry) above, with F247A counted along it
T10 sequence (P08659 whole entry L342A): as the sequence (P08659 whole entry) above, with L342A counted along it
T21 sequence (P08659 whole entry R218K/L342A): as the sequence (P08659 whole entry) above, with R218K, L342A counted along it
T14 sequence (P08659 whole entry I351A): as the sequence (P08659 whole entry) above, with I351A counted along it

Compound: O=C(O)[C@H]1CSC(c2nc3cc4c(cc3s2)NCC4)=N1 [CycLuc1]
- Apparent Vmax ([1]; R218K luciferase, purified protein): 134 ± 1.9 ×10^−5 cps
- Km ([1]; R218K luciferase, purified protein, 3 minutes post-substrate addition, read-out: Apparent Km): 1.8 µM and 1.79 µM
- maximal sustained light emission as % of that of D-luciferin with WT luciferase ([1]; R218K mutant): 12.5%
- improvement in the maximal sustained emission ([1]; R218K mutant relative to wild-type luciferase): 14 fold
- Apparent Vmax [2]: 135 ± 0.8 ×10^−5 cps
- Km [2, 23]: 2.68 ± 0.07 µM
- Maximum Emission Wavelength of Selected Substrate [3]: 595 nm
- Wavelength at Max. Emission [4]: 603 nm
- Wavelength at Max. Emission [5]: 601 nm
- Wavelength at Max. Emission [6]: 601 nm
- Maximum Emission Wavelength of Selected Substrate [7]: 609 nm
- Maximum Emission Wavelength of Selected Substrate ([7]; listed as Cyc1): 605 nm
- Wavelength at Max. Emission [8]: 607 nm
- Wavelength at Max. Emission [9]: 604 nm
- Maximum Emission Wavelength of Selected Substrate [10]: 597 nm
- Wavelength at Max. Emission [11]: 603 nm
- Wavelength at Max. Emission [12]: 602 nm
- Wavelength at Max. Emission [13]: 605 nm
- Wavelength at Max. Emission [14]: 604 nm
- Wavelength at Max. Emission [15]: 591 nm
- Wavelength at Max. Emission [16]: 604 nm
- Vmax higher than wt [17]: 20 fold
- Apparent Vmax [18]: 9.7 ± 0.1 ×10^−5 cps
- Km [18, 23]: 0.1 ± 0.01 µM
- Apparent Vmax [19]: 90 ± 0.9 ×10^−5 cps
- Km [19, 23]: 1.83 ± 0.09 µM
- Apparent Vmax [20]: 60 ± 0.7 ×10^−5 cps
- Km [20, 23]: 0.46 ± 0.03 µM
- Maximum Emission Wavelength of Selected Substrate [21]: 604 nm
- Wavelength at Max. Emission ([22]; Table 2): 601 nm
- Maximum Emission Wavelength of Selected Substrate ([22]; Table 3): 601 nm
